Data taken from PubChem BioAssay (NCI).
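Tested at 5 concentrations; 48 h exposure; 96-well plates; endpoints linearly interpolated, else capped at highest concentration. GI50 is the concentration that inhibits growth by half. TGI denotes the concentration required for complete inhibition of growth.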

Assays:
Assay in all cases: NCI anticancer screen, dose series, 48 h; in the data active means GI50 below about 0.43 µM; inactive means the rest
[1] = tested on: 786-0 renal
[2] = tested on: A498 renal
[3] = tested on: A549 NSCLC
[4] = tested on: ACHN renal
[5] = tested on: BT-549 breast
[6] = tested on: CAKI-1 renal
[7] = tested on: CCRF-CEM leukemia
[8] = tested on: COLO 205 colon
[9] = tested on: DU-145 prostate
[10] = tested on: EKVX NSCLC
[11] = tested on: HCC-2998 colon
[12] = tested on: HCT-116 colon
[13] = tested on: HCT-15 colon
[14] = tested on: HL-60(TB) leukemia
[15] = tested on: HOP-62 NSCLC
[16] = tested on: HOP-92 NSCLC
[17] = tested on: HS 578T breast
[18] = tested on: HT29 colon
[19] = tested on: IGROV1 ovarian
[20] = tested on: K-562 leukemia
[21] = tested on: KM12 colon
[22] = tested on: LOX IMVI melanoma
[23] = tested on: M14 melanoma
[24] = tested on: MALME-3M melanoma
[25] = tested on: MCF7 breast
[26] = tested on: MDA-MB-231 breast
[27] = tested on: MDA-MB-435
[28] = tested on: MOLT-4 leukemia
[29] = tested on: NCI-H226 lung
[30] = tested on: NCI-H23 lung
[31] = tested on: NCI-H460 lung
[32] = tested on: NCI-H522 lung
[33] = tested on: NCI/ADR-RES ovarian
[34] = tested on: OVCAR-3 ovarian
[35] = tested on: OVCAR-4 ovarian
[36] = tested on: OVCAR-5 ovarian
[37] = tested on: OVCAR-8 ovarian
[38] = tested on: PC-3 prostate
[39] = tested on: RPMI-8226 leukemia
[40] = tested on: RXF 393 renal
[41] = tested on: SF-268 CNS
[42] = tested on: SF-295 CNS
[43] = tested on: SF-539 CNS
[44] = tested on: SK-MEL-2 melanoma
[45] = tested on: SK-MEL-28 melanoma
[46] = tested on: SK-MEL-5 melanoma
[47] = tested on: SK-OV-3 ovarian
[48] = tested on: SN12C renal
[49] = tested on: SNB-19 CNS
[50] = tested on: SNB-75 CNS
[51] = tested on: SR leukemia
[52] = tested on: SW-620 colon
[53] = tested on: T-47D breast
[54] = tested on: TK-10 renal
[55] = tested on: U251 CNS
[56] = tested on: UACC-257 melanoma
[57] = tested on: UACC-62 melanoma
[58] = tested on: UO-31 renal

COc1cc(NC2CCCCC2O)c2nc(-c3ccc(Cl)cc3)ccc2c1 (stereo unspecified)
> 100 µM: TGI [3] | TGI [4] | TGI [5] | TGI [10] | TGI [11] | TGI [12] | TGI [19] | TGI [29] | TGI [32] | TGI [33] | TGI [35] | TGI [36] | TGI [37] | TGI [38] | TGI [41] | TGI [45] | TGI [47] | TGI [49] | TGI [53] | TGI [54] | TGI [55] | TGI [56]
23.8 µM: TGI [18]
63 µM: TGI [14]
4.58 µM: TGI [40]
22.4 µM: TGI [13]
inactive: GI50 [1] 5.23 µM | GI50 [2] 6.66 µM | GI50 [3] 6.05 µM | GI50 [4] 8.94 µM | GI50 [5] 40.7 µM | GI50 [6] 4.73 µM | GI50 [7] 4.34 µM | GI50 [8] 6.87 µM | GI50 [9] 12.7 µM | GI50 [10] 18.1 µM | GI50 [11] 13.4 µM | GI50 [12] 12.9 µM | GI50 [13] 2.94 µM | GI50 [14] 7.57 µM | GI50 [15] 5.96 µM | GI50 [16] 18.7 µM | GI50 [17] 2.88 µM | GI50 [18] 4.29 µM | GI50 [19] 24.6 µM | GI50 [20] 2.82 µM | GI50 [21] 3.82 µM | GI50 [22] 5.95 µM | GI50 [23] 9.23 µM | GI50 [24] 7.45 µM | GI50 [26] 4.43 µM | GI50 [27] 4.22 µM | GI50 [28] 3 µM | GI50 [29] 18.6 µM | GI50 [30] 6.15 µM | GI50 [31] 3.35 µM | GI50 [32] 4.83 µM | GI50 [33] 6.1 µM | GI50 [34] 10.5 µM | GI50 [35] 10.1 µM | GI50 [36] 19.1 µM | GI50 [37] 12.2 µM | GI50 [38] 4.87 µM | GI50 [39] 3.66 µM | GI50 [40] 2.78 µM | GI50 [41] 9.68 µM | GI50 [42] 2.8 µM | GI50 [43] 10.5 µM | GI50 [44] 12.5 µM | GI50 [45] 14.4 µM | GI50 [46] 10.6 µM | GI50 [47] 33.5 µM | GI50 [48] 9.96 µM | GI50 [49] 21.7 µM | GI50 [50] 5.04 µM | GI50 [51] 3.26 µM | GI50 [52] 7.52 µM | GI50 [53] 4.9 µM | GI50 [54] 14.6 µM | GI50 [55] 3.88 µM | GI50 [56] 12.2 µM | GI50 [57] 11.1 µM | GI50 [58] 6.31 µM
68.5 µM: TGI [7]
57.8 µM: TGI [26]
23.1 µM: TGI [46]
58 µM: TGI [9]
33.9 µM: TGI [23]
29.2 µM: TGI [21]
28 µM: TGI [24]
35.5 µM: TGI [25]
18.4 µM: TGI [20]
20.7 µM: TGI [8]
51.4 µM: TGI [43]
46.6 µM: TGI [28]
53.1 µM: TGI [48]
12.1 µM: TGI [42]
18.6 µM: TGI [1]
59.1 µM: TGI [50]
34.8 µM: TGI [2]
59.3 µM: TGI [44]
12.3 µM: TGI [31]
30.9 µM: TGI [22]
40.6 µM: TGI [57]
16.6 µM: TGI [27]
61.7 µM: TGI [30]
32.8 µM: TGI [34] | TGI [51]
active: GI50 [25] 0.358 µM
88.3 µM: TGI [16]
63.2 µM: TGI [6]
13.2 µM: TGI [17]
88.5 µM: TGI [58]
25 µM: TGI [39]
46.7 µM: TGI [15] | TGI [52]
